This passage reports melting point results from a melting point compilation (Tetko et al.).

With `ClC1=C(Cl)C2(Cl)C(CBr)CC1(Cl)C2(Cl)Cl` (stereo unspecified), the melting point stood at 77 °C.

As for `O=C=Nc1cccc2c(N=C=O)cccc12`, the melting point stood at 130 °C.

Regarding `Oc1ccc(Cl)cc1Br`, the melting point stood at 33 °C.

In turn, `Cc1ccc(-c2cnco2)cc1` came in with a melting point of 78 °C.

Take `Cn1c(/C(C#N)=N/Nc2c(Cl)cc(Cl)cc2Cl)nc2ccccc21`: the melting point was determined as 168 °C.

In turn, `BrC(Br)c1ccc(C(Br)Br)cc1` gave a melting point of 170 to 173 °C.

As to `CC(C)(C)C(=O)Nc1ncccc1C(=O)O`, the melting point was determined as 280 °C.

Take `CCCCCCCCCCCCCCCl`: the melting point turned out to be 4.9 °C.

The compound `COc1cc(N)cc(OC)c1` returned a melting point of 55 °C.

Consider `CCOc1ccc(C(=O)C=CC(=O)O)cc1`, for which the melting point was in the range of 140 to 144 °C.

`Nc1ccc2[nH]nnc2c1` returned a melting point of 160 °C.

On to `CC1(C)CCC(C)(C)C1`, for which the melting point was -88.4 °C.

`Nc1ccc2cc(N)ccc2c1` yielded a melting point of 213 °C.

Take `CCCCC(c1ccccc1)c1ccccc1`: the melting point is -12 °C.

The compound `Cc1ccc2ccccc2c1N` returned a melting point of 32 °C.

Regarding `CCCCCCCC(=O)OCCCCC`, the melting point was -34.8 °C.

For the compound `Nc1cccc(S(=O)(=O)c2cccc(N)c2)c1`, the melting point stood at 172 °C.

The compound `Nc1c(I)cc(I)c(C(=O)O)c1I` came in with a melting point of 196 to 199 °C.

In the case of `O=C(O)c1cc(Br)ccc1O`, the melting point stood at 170 °C.

In the case of `Oc1ccc(CCc2nnc(S)n2-c2ccc(F)cc2)cc1`, the melting point lay in the range of 204 to 205 °C.

Regarding `CC(=CCNc1ncnc2nc[nH]c12)CO`, the melting point turned out to be 208 °C.

`COC(=O)c1ccc2c(c1)OCO2` displayed a melting point of 53 °C.

Regarding `CN(C)c1ccc(CNC2=CC(=O)c3ccccc3C2=O)cc1`, the melting point fell in the range of 165 to 167 °C.

In the case of `CC1=NN(c2ccc(Cl)cc2Cl)C(=O)C1C(Cl)C1(Cl)C(=O)N(c2ccc(Cl)cc2Cl)N=C1C` (stereo unspecified), the melting point is 110 to 120 °C.

As to `O=Nc1ccc2ccccc2c1O`, the melting point lay in the range of 156 to 158 °C.

Regarding `Cc1ccc(C(=O)C=Cc2cccc([N+](=O)[O-])c2)cc1`, the melting point was in the range of 134 to 137 °C.

Compound `Cc1nn(C(=O)c2ccncc2)c2c1nnc1ccc(Cl)cc12` displayed a melting point of 162 °C.

Take `COc1ccc(C=Nc2ccc(C3=NNC(=O)CC3)cc2)cc1`: the melting point was 213 to 215 °C.

Compound `OCC(c1ccccc1)c1ccccc1` displayed a melting point of 64.5 °C.

`c1cc(-c2n[nH]c(-c3ccncc3)n2)ccn1`: the melting point was 242 °C.

`CC(=O)OCN1C(=O)NC(c2ccccc2)(c2ccccc2)C1=O` displayed a melting point of 158 °C.

Regarding `C[C@]12CCC(=O)C[C@@H]1CCC1=C2CC[C@@H]2C(=O)CC[C@H]12`, the melting point was 137 to 138 °C.

`O=[N+]([O-])c1ccc(Br)nc1`: the melting point was 138 °C.

In turn, `O=C(O)c1cc(C(F)(F)F)ccc1N1CCOCC1` yielded a melting point of 175 to 177 °C.

As to `COc1ccc(C=C(Oc2ccc(Cl)cc2)c2nc3ccccc3s2)cc1`, the melting point lay in the range of 137 to 139 °C.

Turning to `Cc1cc(-c2ccc(NC=O)c(C)c2)ccc1NC=O`, the melting point is 265 to 270 °C.

`CC1CCC2(C(=O)O)CCC3(C)C(=CCC4C5(C)CCC(O)C(C)(C)C5CCC43C)C2C1C` (stereo unspecified) showed a melting point of 284 °C.

Turning to `CCOC(=O)c1cc2c(=O)oc3ccccc3c2nc1N`, the melting point came out at 192 °C.

Turning to `Fc1ccc2[nH]ccc2c1`, the melting point is 45 °C.

In turn, `C=CCC1(CC(=C)Br)C(=O)NC(=O)NC1=O` gave a melting point of 168 °C.

`CC(C)c1cc(C(C)C)c(S(N)(=O)=O)c(C(C)C)c1` gave a melting point of 115 °C.

As to `CCCCc1ccc(NC(=O)c2ccc(CC)cc2)cc1`, the melting point is 117 °C.

`CC1(C)CC(N)CC(C)(CN)C1` (stereo unspecified): the melting point turned out to be 10 °C.

Compound `CC(C)N1CSc2nnc(-c3cccnc3)n2C1` gave a melting point of 289 °C.

Turning to `CCOC(=O)[C@]12C[C@@H](c3ccccc3)c3ccccc3[C@H]1c1ccccc1OC2=O`, the melting point is 162 °C.

Consider `CCC(=O)C(=O)O`, for which the melting point amounted to 33 °C.

Take `FC(F)(F)c1cccc(Br)c1`: the melting point was 1 °C.

In the case of `FC(F)(F)S(F)(F)(F)(F)F`, the melting point was -87 °C.

`CC1C(=O)OC2CCN3CC=C(COC(=O)C(C)(O)C1(C)O)C23` (stereo unspecified) showed a melting point of 197 to 204 °C.

Compound `CN(C)c1ccc(C2Nc3nc(C(F)(F)F)nn3C(N)=C2C#N)cc1` (stereo unspecified) gave a melting point of 164 °C.

Turning to `O=C(O)c1cccnc1Cl`, the melting point was 176 to 178 °C.

`c1ccc2sc(SN(C3CCCCC3)C3CCCCC3)nc2c1`: the melting point turned out to be 99.8 °C.

For `O=C(c1ccco1)c1nn2c(nc(=O)c3ccccc32)s1`, the melting point is 325 °C.

For `Clc1ccc(-c2c(Cl)cc(Cl)c(Cl)c2Cl)c(Cl)c1`, the melting point is 73 °C.

`CC1=C(C(=O)OC(C)C)C(c2ccc3c(c2)OCO3)NC(=O)N1` (stereo unspecified) returned a melting point of 186 °C.

`O=C(O)Cc1c(F)ccc(F)c1F` yielded a melting point of 111 to 114 °C.

`Brc1ccc(Oc2ccccc2)cc1Br` had a melting point of under 20 °C.

In turn, `Cc1cc(C(N)=S)n(C)n1` yielded a melting point of 170 °C.

For `O=C(COc1ccccc1)c1ccc(O)cc1O`, the melting point is 207 to 208 °C.

In the case of `Nn1c(S(=O)(=O)O)nc2ccccc21`, the melting point is 252 to 253 °C.

For the compound `COc1cc(C)c2c(c1)CC2=O`, the melting point was 83 °C.

Turning to `Cc1c(Cl)cccc1Cl`, the melting point worked out at 25.8 °C.

`CCOC(=O)C=Cc1ccc(N)cc1` returned a melting point of 73 °C.

`C=CCNC(=O)C(C(F)(F)F)C(F)(F)F` returned a melting point of 117 °C.

With `Oc1nc(CCc2ccccc2)nn1-c1ccccc1`, the melting point was 182 °C.

Consider `COC(=O)CCC(C)C1CCC2C3CCC4CC(OC(C)=O)CCC4(C)C3CC(OC(C)=O)C12C` (stereo unspecified), for which the melting point stood at 116 °C.

`O=S(=O)(CS(=O)(=O)c1ccccc1)c1ccccc1`: the melting point was 117 to 123 °C.

Regarding `CCOC(=O)c1sc(SC)c(S(=O)(=O)C(C)C)c1N`, the melting point lay in the range of 143 to 146 °C.

Compound `CC(=O)OCC(OC(C)=O)C(OC1OC(COC(C)=O)C(OC(C)=O)C(OC(C)=O)C1OC(C)=O)C(OC(C)=O)C(C#N)OC(C)=O` (stereo unspecified) yielded a melting point of 132 °C.

Compound `COc1cc(C)c(C(O)C#N)cc1OC` (stereo unspecified) registered a melting point of 80 °C.

In turn, `NC(=S)c1ccc(F)c(Cl)c1` displayed a melting point of 129 to 131 °C.

In turn, `CSc1nc(N)c(C(=O)c2ccc(Cl)cc2)s1` showed a melting point of 148 to 150 °C.

For `O=Cc1ccc(-c2ccco2)s1`, the melting point lay within 40 to 41 °C.

Compound `O=Cc1ccc(I)c(O)c1` displayed a melting point of 131 to 132 °C.

As to `O=C(c1ccc(F)cc1)C(F)(F)F`, the melting point fell in the range of 24 to 27 °C.

`CCOP(=O)(NC(C)C)Oc1ccc(SC)c(C)c1` (stereo unspecified) registered a melting point of 49 °C.

`CC=C(CC)C(=O)NC(N)=O`: the melting point was determined as 198 °C.

Turning to `Cc1csc2ccc(Cl)cc12`, the melting point stood at 35 °C.

`O=C(Nc1ccccc1Br)Nc1ccccc1Br` had a melting point of 235 to 237 °C.

`CC(=O)NCCc1ccccc1` displayed a melting point of 48 to 52 °C.

In turn, `Clc1cc(Cl)c(Cl)c(I)c1` yielded a melting point of 52 °C.

Turning to `CCOC(=O)C1=C(C)N(C)C(=S)NC1c1ccccc1` (stereo unspecified), the melting point is 147 °C.

For the compound `O=S(=O)(Oc1ccc(Cl)cc1)c1ccc(Cl)cc1`, the melting point turned out to be 86.5 °C.

`C1COCCN2CCOCCOCCN(CCO1)CCOCCOCC2` displayed a melting point of 68 to 72 °C.

`O=C(O)c1cc(F)cc(Br)c1` gave a melting point of 143 °C.

In turn, `O=C(O)c1cc(-c2ccc(Br)cc2)oc1C(F)(F)F` registered a melting point of 201 to 203 °C.

For the compound `CCN(CC)c1ccc(C=O)c(O)c1`, the melting point was 62 °C.

For the compound `FC(F)(F)C(F)(F)C(F)(F)C(F)(F)C(F)(F)C(F)(F)C(F)(F)C(F)(F)C(F)(F)C(F)(F)C(F)(F)C(F)(F)F`, the melting point fell in the range of 75 to 77 °C.

In the case of `O=C(O)c1cccc(CSc2cccs2)c1`, the melting point lay within 108 to 110 °C.

In turn, `C[Si](C)(C)C#CC#C[Si](C)(C)C` yielded a melting point of 112 °C.

On to `Cc1onc(-c2c(F)cccc2Cl)c1C(N)=O`, for which the melting point was in the range of 127 to 129 °C.

In turn, `Cc1ccsc1` returned a melting point of -69 °C.

`Cc1ccc(C2(C(=O)O)CCCCC2)cc1` showed a melting point of 166 to 170 °C.

`Nc1ccc(N2CCOCC2)cc1` returned a melting point of 130 to 131 °C.

For the compound `Cc1cccc(OCC(=O)O)c1C`, the melting point fell in the range of 186 to 190 °C.

Consider `FC(F)(Cl)C(Cl)(Cl)Cl`, for which the melting point was 40.6 °C.

With `OCc1ccc(-c2cccs2)nc1`, the melting point lay in the range of 124 to 125 °C.

As for `O=C(CCCl)NCc1ccccc1`, the melting point was determined as 94 °C.

`O=C1CC(C(=O)OCc2ccccc2)N1` (stereo unspecified) came in with a melting point of 137 to 138 °C.

Turning to `O=C(Cc1ccccc1)OC(=O)Cc1ccccc1`, the melting point was 73.3 °C.

In turn, `NC(=S)c1ccsc1` returned a melting point of 96 to 98 °C.

As for `Cc1c(C)c(C)c(C(=O)c2ccccc2)c(C)c1C`, the melting point was 138 °C.

With `N#CC1C(=S)NC2(C(=O)Nc3ccccc32)C2=C1CCCC2` (stereo unspecified), the melting point was found to be 222 °C.

Compound `CCCCCCCCCCCCCCCCCCCc1ccccc1` came in with a melting point of 40 °C.

In turn, `CCOC(=O)c1c(C)oc(NC(=O)Nc2ccccc2)c1C(=O)OCC` had a melting point of 110 to 112 °C.

Regarding `COC(=O)C=C(CCl)OC`, the melting point worked out at 25 °C.

`O=C(Cl)c1sccc1Cl` had a melting point of 45 to 46 °C.

`CN(C)S(F)(F)F`: the melting point was -78.7 °C.

Compound `O=C(C=Cc1ccc([N+](=O)[O-])cc1)c1ccccc1` yielded a melting point of 164 °C.

As for `FC(F)(F)c1ccc(-c2nnc(S)o2)cc1`, the melting point is 155 to 156 °C.

Consider `O=C(Cl)C=Cc1ccccc1Cl`, for which the melting point was 38 °C.

For orientation: melting point means the temperature, or range, at which the solid turns liquid.
